# Source: US11260062B2, “Pharmaceutical composition for treatment of lung cancer comprising glucocorticoid-based compound” (AJOU UNIVERSITY INDUSTRY-ACADEMIC COOPERATION FOUNDATION, priority 2015, dated 2022)
# Residues, ends and D or L forms follow the SMILES beside them. *: point of attachment. Cbz = O=C(OCc1ccccc1)*
# Columns and labels:
# [1] = Xenograft assay, body weight / side effects; type: in vivo, Balb/c-nu mice; details: all treatment groups, 40 days
# Description: On the other hand, xenograft assay was performed using A549 cell line. Specifically, Balb/c-nu mice (6-8 weeks of age, Orient Bio, Seongnam, Korea) were prepared to perform tumor genografts and A549-luc-C8 cells (Perkin Elmer, 5.0×10^6/head) were injected subcutaneously into the mice. Two weeks later, when the size of tumors reached 50-100 mm^3, mice were divided to 6 groups: a control group administered with only vehicle (200 μl of PBS containing 1.2% DMSO, 0.25% PEG 400 and 0.25% tween 80), a group administered with 0.5 mg/kg of clobetasol propionate (CP), a group administered with 1 mg/kg of clobetasol propionate, a group administered with 1 mg/kg of rapamycin, and Combination 1 (CP 0.5 mg/kg+rapamycin 1 mg/kg) and Combination 2 (CP 1 mg/kg+rapamycin 1 mg/kg). Then, for the next 40 days, the vehicle and rapamycin (n=5 per group) were injected intraperitoneally daily (5 days per week) and clobetasol propionate was injected intraperitoneally once every 2 days (3 days per week).
# Primary tumor size and body weight were measured every 3 to 4 days by a caliper and a balance, and the volume of the tumor was V (mm^3)=(A×B^2)/2 (V is volume, A Is the long diameter and B is the short diameter).
# NRF2 [2] = assay: Western blotting of NRF2 protein in A549 cells; type: cell-based
# Description: (§1) Specifically, for Western blotting, the A549 cells expressing Tet-pLKO-NCshRNA (negative control) and three Tet-pLKO-NRF2 shRNAs were treated with doxycycline for 3 days and 6 days, followed by separation of proteins. Each separated 10 μg of the protein was loaded on 8% acrylamide gel, electrophoresed, transferred to nitrocellulose (NC) membrane, and NRF2 antibody (Cell signaling, 1:1000) and actin antibody (SCBT, 1:1000) were diluted in TBST (Tris-Buffered Saline with Tween 20) buffer containing 5% skim milk and reacted overnight at 4° C. Subsequently, the secondary antibody was reacted for 1 hour, washed with TBST, and the protein expression level was measured using ECL (Enhanced chemiluminescence).
# Firstly, the A549-tet-on cells transfected with the vector containing GCR-shRNA were constructed and after the treatment with doxycycline and clobetasol propionate, and protein extracts were prepared by hemolysis with cell lysis buffer (Cell signaling technology) supplemented with protease inhibitor cocktail (EMD millipore) to perform Western blotting. Then, western blotting was carried out in the same manner as in the Example 1. At this time, the concentration of the protein was determined by performing a Bradford assay according to the Example 1. In addition, luciferase assays were carried out in the same manner as in the Example 1.
# (§2) According to accumulated research results, NRF2 protein levels can be regulated by mRNA transcription, or proteasome related degradation. To confirm whether NRF2 is suppressed through mRNA transcription inhibition or NRF2 is suppressed by promoting proteasome-related degradation, real-time PCR was performed on the cells, and MG132, a proteasome inhibitor, was treated and Western blotting was performed in the same manner as in the Example 1.
# In general, proteasome degradation of the NRF2 protein consists of two pathways as shown in FIG. 5a: i.e. a pathway by KEAP1 and a pathway by GSK3-β-TrCP. […]
# NRF2 [3] = assay: ARE-luciferase assay for NRF2 activity in A549-ARE cells; type: cell-based
# Description: In addition, A549-ARE cells were firstly dispensed into 5×10^3 cells per well in a 96 well plate, and each of the clinical compounds was treated with various concentrations (1 μM or 5 μM) after 24 hours. After 24 hours, 30 μl of a lysis buffer was added, and the mixture was dissolved at 4° C. for 40 minutes using a rocker. 20 μl of the dissolved product was added to a 96-well white plate and 100 μl of a luciferase substrate buffer having the following composition was added thereto and luciferase activity was measured by using a plate reader.
# The remaining dissolved product was diluted five times with distilled water (DW) and the protein concentration was measured by the Bradford assay (BioRad). Specifically, 200 μl of the Bradford reagent (Coomassie Brilliant Blue G-250) diluted […] with distilled water was reacted with 5 μl of the remaining dissolved product and absorbance was measured at 595 nm. The protein concentration of the dissolved products was calculated by the same experiment using BSA solution as a standard protein. The luciferase value was calibrated by dividing the luciferase value measured above by the measured protein concentration.
# Namely, the luciferase assays were performed using […] cells as the method of the Example 1.
# NRF2 [4] = assay: Western blotting of nuclear and cytoplasmic fractions (NRF2 migration to the nucleus); type: cell-based
# From the text: Furthermore, GSK3 inhibits the migration of NRF2 to the nucleus, as known so far.
# NRF2 [5] = assay: Verification of doxycycline-inducible NRF2-shRNA in A549-ARE cells (Western blotting, luciferase, GFP); type: cell-based; details: doxycycline-induced, compared among three NRF2-shRNAs
# Description: In order to construct a Tet-inducible shRNA expression system, the following shRNAs were inserted into a tet-pLKO-pyro vector (Dmitri Wiederschain: Addgene plasmid #21915) and then A549-ARE cell line expressing doxycycline-inducible NRF2-shRNA was established by the transduction.
# Then, 0.2 μg/mL of doxycycline (DOX; Clontech) was treated every 2 days in the medium to induce NRF2-shRNA expression. Thereafter, the NRF2 expression inhibition efficiency was verified by Western blotting, luciferase activity measurement and GFP expression measurement using a fluorescence microscope.
# as §1
# [6] = system: NRF2 target proteins (G6PD, PGD, ME1, GCLM, AKR1B10 and AKR1C3); assay: Western blotting of NRF2 target proteins in KEAP1 mutant cells; type: cell-based; details: 2, 4 or 5 days
# Description: In order to confirm the effect of glucocorticoid on cells having high NRF2-activity, KEAP1 mutant cells (A549 and H2228) were treated with clobetasol propionate for 2 days, 4 days or 5 days, the expression of major NRF2 target proteins (G6PD, PGD, ME1, GCLM, AKR1B10 and AKR1C3) associated with redox regulation was measured by the Western blotting. As a control, the cell was used, in which NRF2-shRNA was transformed to H2228 cell line to inhibit NRF2 expression.
# H2228 = assay: Soft agar assay, H2228; type: cell-based; details: H2228 (KEAP1-mutant, LKB1-normal), 2 weeks
# Description: (§3) The synergistic anticancer effects of the treatment of clobetasol propionate sole and the combined use with rapamycin, an mTOR inhibitor on LKB1/KEAP1 normal lung cancer cell line H1299, KEAP1 mutant cell line H2228, LKB1/KEAP1 mutant lung cancer cell lines A549 and H460 were analyzed by soft agar assay. In order to confirm whether the tumor inhibitory effect of clobetasol propionate was due to NRF2 inhibition, the effect was compared with tumor suppression effect in NRF2 knock-down lung cancer cell line using NRF2-shRNA-2, which was used in the Example 2.
# (§4) Specifically, […] of a 0.7% agar-containing DMEM medium was added into a 12-well plate and was solidified (bottom agar) and 300 μl of a DMEM medium containing 3×10^3 cells and 0.35% agar was placed on the solidified agar medium and solidified (top agar+/− Doxycycline). After solidification, 250 μl of DMEM medium (+/− Doxycycline) was added and the number of colonies formed after culturing for 2 weeks in a CO2 incubator was determined, and the result was shown in FIGS. 7a to 7e.
# A549 = assay: Soft agar assay, A549; type: cell-based; details: A549 (KEAP1-mutant, LKB1-mutant), 2 weeks
# Description: as §3, §4
# A549-luc-C8 cells = assay: Xenograft assay with A549 cell line, tumor volume; type: in vivo, Balb/c-nu mice; details: 40 days
# From the text: Thereafter, mice were sacrificed in a 7.5% CO2 chamber and tumors were obtained for further analysis.
# H460 = assay: Soft agar assay, H460; type: cell-based; details: H460 (KEAP1-mutant, LKB1-mutant), sole treatment
# Description: as §3, §4
# Thereafter, the synergistic effect was analyzed when clobetasol propionate and rapamycin were simultaneously treated, or NRF2 was knocked down using NRF2-shRNA and treated with rapamycin.
# [7] = system: A549 and H2228 cell lines; assay: Hydrogen peroxide (active oxygen) measurement with CMH2DCF-DA; type: cell-based
# Description: In addition, because ME1 and GCLM proteins have detoxification activity of hydrogen peroxide, to confirm this change, the amount of hydrogen peroxide after the treatment with clobetasol propionate was measured as follows: The A549 and H2228 cell lines were cultured in 5 μM CMH2DCF-DA (Invitrogen) after the incubation for 30 minutes, the cultured cells were washed twice with phosphate buffered saline and incubated in the dark for 40 minutes with 90% dimethylsulfoxide (DMSO) and 10% PBS, and the fluorescent dye was released. After the culture, the supernatant of the culture liquid was dispensed into a 96-well plate and the amount of fluorescence was measured at 480/530 nm. For standardization of the measured fluorescence intensity, the cells remaining after removing the supernatant and washing with PBS, were stained with a crystal violet solution (20% methanol and 0.5% crystal violet) for 10 minutes at room temperature. After washing three times, the incubation was performed for solubilization in 1% SDS solution and absorbance at 570 nm was measured.
# H1299 = assay: Soft agar assay, H1299; type: cell-based; details: H1299 (KEAP1-normal, LKB1-normal), 2 weeks
# Description: as §3, §4
# NRF2 [8] = assay: Real-time PCR of NRF2 mRNA in A549 cells; type: cell-based
# Description: as §2
# Specifically, for real-time PCR, total RNA was extracted from A549 cells using TRIZol (Invitrogen). Then, 1 μg of total RNA was reverse transcribed to cDNA using oligo dT primer and SuperScript II Reverse Transcriptase according to the manufacturer's instructions (Invitrogen). Thereafter, PCR was performed according to the manufacturer's instructions (Affymetrix) using HotStart-IT SYBR Green qPCR Master Mix.
# [9] = co-treatment with clobetasol propionate
# [10] = KEAP1 mutant A549 cells, co-treatment with clobetasol propionate
# [11] = A549-tet-on GCR-shRNA cells, effect blocked by inhibition of GCR expression
compound,measurement,setting,value
CO[C@H]1C[C@@H]2CC[C@@H](C)[C@@](O)(O2)C(=O)C(=O)N2CCCC[C@H]2C(=O)O[C@H]([C@H](C)C[C@@H]2CC[C@@H](O)[C@H](OC)C2)CC(=O)[C@H](C)/C=C(\C)[C@@H](O)[C@@H](OC)C(=O)[C@H](C)C[C@H](C)/C=C/C=C/C=C/1C [rapamycin],body weight of the mice,[1],no significant change
CC(C)C[C@@H](C=O)NC(=O)[C@H](CC(C)C)NC(=O)[C@H](CC(C)C)NC(=O)OCc1ccccc1 [MG132] (Cbz-Leu-Leu-Leu-aldehyde),"amount of NRF2 protein inhibited by clobetasol propionate, on MG132 treatment",NRF2 [2]; [9],recovered
same,"inhibition of NRF2 activity by glucocorticoids, on MG132 treatment",NRF2 [3]; [9],does not recover
"Cc1c[nH]c(-c2cnc(NCCNc3ccc(C#N)cn3)nc2-c2ccc(Cl)cc2Cl)n1 [GSK3 inhibitor, CT99021]","NRF2 proteolysis induced by clobetasol propionate, on GSK3 inhibitor treatment",NRF2 [2]; [10],inhibited
same,"inhibition of activity of NRF2 induced by clobetasol propionate, on GSK3 inhibitor treatment",NRF2 [3]; [10],inhibited
same,"effect of clobetasol propionate on NRF2 migration into the nucleus, on GSK3 inhibitor treatment","NRF2 [4]; under the treatment of MG132, co-treatment with clobetasol propionate",completely blocked
"NRF2sh-2: doxycyclin-inducible NRF2-shRNA, SEQ. NO. 2 of Table 1 (CCGGGCTCCTACTGTGATGTGAAATCTCGAGATTTCACATCACAGTAGGAGCTTTTTG)","inhibition of NRF2 protein expression, luciferase activity and GFP signal",NRF2 [5],most effectively
CCC(=O)O[C@]1(C(=O)CCl)[C@@H](C)C[C@H]2[C@@H]3CCC4=CC(=O)C=C[C@]4(C)[C@@]3(F)[C@@H](O)C[C@@]21C [clobetasol propionate],NRF2 target protein expression,[6]; A549 cell line,effectively inhibited
same,expression of NRF2 target which has antioxidative activity,[6]; H2228 cell line,effectively inhibited
same,cell growth (colonies in soft agar),H2228,strongly inhibited
same,cell growth (colonies in soft agar),A549,strongly inhibited
same,anticancer effect (tumor volume),A549-luc-C8 cells; 0.5 mpk intraperitoneally once every 2 days,distinct anticancer effect
same,anticancer effect (tumor volume),A549-luc-C8 cells; 1 mpk intraperitoneally once every 2 days,distinct anticancer effect
same,cell growth (colonies in soft agar),H460,slightly inhibited
same,active oxygen (hydrogen peroxide),[7]; A549,significantly increased
same,active oxygen (hydrogen peroxide),[7]; H2228,significantly increased
same,level of the NRF2 protein (Western blot),NRF2 [2]; [11],significantly reduced
same,cell growth (colonies in soft agar),H1299,did not significantly affect
same,body weight of the mice,[1],no significant change
same,time for which inhibition of NRF2 activity was maintained,"NRF2 [3]; 100 nM, measured at 8, 24 and 48 hours",at least 48 hours
same,NRF2 inhibitory effect at 1 μM compared among 13 GCs-based drugs,NRF2 [3]; 1 μM,most excellent inhibitory effect
same,activity of the NRF2 protein (luciferase),NRF2 [3]; [11],significantly reduced
same,concentration from which excellent NRF2 inhibitory effect is shown (luciferase),NRF2 [3]; concentration comparison of 13 GCs-based drugs,≥ 1 nM
same,migration of NRF2 into the nucleus,NRF2 [4]; under the treatment of MG132,inhibited
same,mRNA level of NRF2,NRF2 [8],did not affect
